The text below walks through data of ChEMBL document CHEMBL3877281, “Extending the structure-activity relationship study of marine natural ningalin B analogues as P-glycoprotein inhibitors” (Eur J Med Chem, 2017).

Molecules are shown by their SMILES.

For data set [1], the species on record is Homo sapiens. Description: Inhibition of P-gp in human MDA435/LCC6MDR cells assessed as potentiation of paclitaxel-induced cytotoxicity at 1 uM measured after 5 days by Cell Titer 96 Aqueous assay relative to paclitaxel alone. Format: cell-based.
The nature of data set [2]: Cytotoxicity against mouse L929 cells measured after 3 days by MTS assay. Format: toxicity.
For data set [3], the species on record is Homo sapiens. Description: Potency index, ratio of EC50 for verapamil to EC50 for test compound for inhibition of P-gp in human MDA435/LCC6MDR cells assessed as reduction of vincristine cytotoxic IC50 by half. Format: cell-based.
The nature of data set [4]: Inhibition of P-gp in human MDA435/LCC6MDR cells assessed as reduction of doxorubicin cytotoxic IC50 by half after 5 days by Cell Titer 96 Aqueous assay. Format: cell-based. As to conditions: 120 h.
Data set [5] is described as follows: Inhibition of P-gp in human MDA435/LCC6MDR cells assessed as increase in doxorubicin accumulation to half of parental LCC6 cells measured after 150 mins by fluorescence spectrophotometric method. It is filed as cell-based. As to conditions: MDA-435/LCC6, 2.5 h.
Data set [6] is filed under the species Homo sapiens. Description: Potency index, ratio of EC50 for verapamil to EC50 for test compound for inhibition of P-gp in human MDA435/LCC6MDR cells assessed as reduction of paclitaxel cytotoxic IC50 by half. Format: cell-based.
The species named for data set [7] is Homo sapiens. Description: Potency index, ratio of compound effect to verapamil effect for inhibition of P-gp in human MDA435/LCC6MDR cells assessed as increase in rhodamine-123 accumulation. It is filed as cell-based.
The species named for data set [8] is Homo sapiens. Description: Potency index, ratio of EC50 for verapamil to EC50 for test compound for inhibition of P-gp in human MDA435/LCC6MDR cells assessed as reduction of vinblastine cytotoxic IC50 by half. Format: cell-based.
Data set [9] deals with P-gp. The experiment in a line: Selectivity index, ratio of IC50 for cytotoxicity against mouse L929 cells to EC50 for inhibition of P-gp in human MDA435/LCC6MDR cells assessed as reduction of vincristine cytotoxic IC50 by half. Format: toxicity, cell-based. As to conditions: probe vincristine, read-out: Ratio IC50/EC50.
Data set [10] can be described thus: Inhibition of P-gp in human MDA435/LCC6MDR cells assessed as reduction of paclitaxel cytotoxic IC50 by half measured after 5 days by Cell Titer 96 Aqueous assay. Format: cell-based. As to conditions: 120 h.
The test system of data set [11] is P-gp. Description: Selectivity index, ratio of IC50 for cytotoxicity against mouse L929 cells to EC50 for inhibition of P-gp in human MDA435/LCC6MDR cells assessed as reduction of doxorubicin cytotoxic IC50 by half. It is filed as toxicity, cell-based. As to conditions: probe doxorubicin, read-out: Ratio IC50/EC50.
The species entered for data set [12] is Homo sapiens. The experiment in a line: Inhibition of P-gp in human MDA435/LCC6MDR cells assessed as increase in rhodamine-123 accumulation at 2 uM measured after 150 mins by fluorescence spectrophotometric method relative to control. Format: cell-based.
Data set [13] is described as follows: Inhibition of P-gp in human MDA435/LCC6MDR cells assessed as reduction of vincristine cytotoxic IC50 by half measured after 5 days by Cell Titer 96 Aqueous assay. It is filed as cell-based. As to conditions: 120 h.
Data set [14] deals with P-gp. Description: Selectivity index, ratio of IC50 for cytotoxicity against mouse L929 cells to EC50 for inhibition of P-gp in human MDA435/LCC6MDR cells assessed as reduction of paclitaxel cytotoxic IC50 by half. As to conditions: probe paclitaxel, read-out: Ratio IC50/EC50. Format: toxicity, cell-based.
Data set [15] has as its system P-gp. Description: Selectivity index, ratio of IC50 for cytotoxicity against mouse L929 cells to EC50 for inhibition of P-gp in human MDA435/LCC6MDR cells assessed as reduction of vinblastine cytotoxic IC50 by half. It is filed as toxicity, cell-based. As to conditions: probe vinblastine, read-out: Ratio IC50/EC50.
The species entered for data set [16] is Homo sapiens. The experiment in a line: Potency index, ratio of EC50 for verapamil to EC50 for test compound for inhibition of P-gp in human MDA435/LCC6MDR cells assessed as reduction of doxorubicin cytotoxic IC50 by half. Format: cell-based.
Data set [17] in a line: Inhibition of P-gp in human MDA435/LCC6MDR cells assessed as reduction of vinblastine cytotoxic IC50 by half measured after 5 days by Cell Titer 96 Aqueous assay. It is filed as cell-based. As to conditions: 120 h.
For data set [18], the species on record is Homo sapiens. Description: Inhibition of P-gp in human MDA435/LCC6MDR cells assessed as increase in doxorubicin accumulation at 2 uM measured after 150 mins by fluorescence spectrophotometric method relative to control. Format: cell-based.

In the case of `COc1ccc(C2=C(c3ccc(OC)c(OC)c3)C(=O)N(Cc3ccc(OCc4ccccc4)c(OC)c3)C2=O)cc1OC`, the fold change (FC) in the data set filed under Homo sapiens [1] came out at 9.3.

For the compound `COc1ccc(C2=C(c3ccc(C)cc3)C(=O)N(CC(=O)c3ccc(OCc4ccccc4)c(OC)c3)C2=O)cc1OC`, the fold change (FC) in the data set filed under Homo sapiens [1] stood at 8.6.

Regarding `COc1ccc(C2=C(c3ccc(OC)c(OC)c3)C(=O)N(Cc3cc(OC)c(OC)c(OC)c3)C2=O)cc1OC`, the fold change (FC) in the data set filed under Homo sapiens [1] is 13.8.

The IC50 is the point on the concentration scale where inhibition reaches its midpoint. Read a low IC50 as inhibition by little substance. `COc1ccc(CCN(C)CCCC(C#N)(c2ccc(OC)c(OC)c2)C(C)C)cc1OC` (stereo unspecified) [VERAPAMIL] returned a 50% inhibitory concentration (IC50) at 3 days in data set [2] of 89000 nM. In other words, the double-digit micromolar range.

`COc1ccc(C2=C(c3ccc(OC)c(OC)c3)C(=O)N(CC(=O)c3ccc(OCc4ccccc4)c(OC)c3)C2=O)cc1OC`: the fold change (FC) in the data set filed under Homo sapiens [1] is 39.8.

As for `COc1cc(CN2C(=O)c3ccccc3C2=O)cc(OC)c1OC`, the fold change (FC) in the data set listed under Homo sapiens [1] worked out at 1.2.

Consider `COc1ccc(C(=O)CN2C(=O)c3ccccc3C2=O)cc1`, for which, in the data set filed under Homo sapiens [1], the fold change (FC) worked out at 1.3.

Take `COc1ccc(C2=CC(=O)N(CC(=O)c3ccc(OCc4ccccc4)c(OC)c3)C2=O)cc1OC`: the fold change (FC) in the data set listed under Homo sapiens [1] amounted to 1.4.

A word on the EC50: it is the concentration at which the effect is half-maximal. Consider `COc1ccc(C2=C(c3ccc(OC)c(OC)c3)C(=O)N(CC(=O)c3ccc(OCc4cc(OC)c(OC)c(OC)c4Br)c(OC)c3)C2=O)cc1OC`, for which the Ratio EC50 in the data set listed under Homo sapiens [3], in the data set listed under Homo sapiens [6], in the data set listed under Homo sapiens [8] and in the data set listed under Homo sapiens [16] was 2 to 3.7 throughout. The EC50 in data set [4] came out at 120 nM; in [5] it was 78 nM; in data set [10], 165 nM; in data set [13], 132 nM; in data set [17] it was 137 nM. Also, the fold change (FC) was determined as 48 in the data set listed under Homo sapiens [1], 4.8 in the data set listed under Homo sapiens [12] and 2.4 in the data set listed under Homo sapiens [18]. For the same compound, the Ratio in the data set listed under Homo sapiens [7] was determined as 1.7. The selectivity ratio in the data set on P-gp [9] was > 758; in the data set on P-gp [11], > 833; in the data set with P-gp [14], > 606; in the data set with P-gp [15], > 730. Besides, in data set [2], the concentration for half-maximal inhibition (IC50) at 3 days was > 100000 nM.

Consider `COc1cccc(C2=C(c3ccc(OC)c(OC)c3)C(=O)N(CC(=O)c3ccc(OCc4ccccc4)c(OC)c3)C2=O)c1`, for which the fold change (FC) in the data set filed under Homo sapiens [1] was 8.8.

For the compound `COc1cc(C(=O)CN2C(=O)c3ccccc3C2=O)ccc1OCc1ccccc1`, in the data set listed under Homo sapiens [1], the fold change (FC) was 1.1.

As for `COc1ccc(C2=C(SC)C(=O)N(CC(=O)c3ccc(OCc4ccccc4)c(OC)c3)C2=O)cc1OC`, in the data set filed under Homo sapiens [1], the fold change (FC) stood at 1.4.

With `COc1ccc(C(=O)CN2C(=O)C(c3ccc(OC)c(OC)c3)=C(c3ccc(OCc4ccccc4)c(OC)c3)C2=O)cc1`, the fold change (FC) in the data set filed under Homo sapiens [1] worked out at 4.5.

On to `COc1ccc(C2=C(c3ccc(C)cc3)C(=O)N(Cc3ccc(S(C)(=O)=O)cc3)C2=O)cc1OC`, for which, in the data set listed under Homo sapiens [1], the fold change (FC) was 3.

`COc1ccc(C2=C(c3ccc(OCc4ccccc4)c(OC)c3)C(=O)N(CC(=O)c3ccc(OCc4ccccc4)c(OC)c3)C2=O)cc1OC`: the fold change (FC) in the data set listed under Homo sapiens [1] turned out to be 1.4.

On to `COc1ccc(C(=O)CN2C(=O)C(c3cccc(OC)c3)=C(c3ccc(OC)c(OC)c3)C2=O)cc1`, for which, in the data set listed under Homo sapiens [1], the fold change (FC) turned out to be 3.5.

For the compound `COc1ccc(C2=C(c3ccc(OC)c(OC)c3)C(=O)N(Cc3cc(OC)c(OC)c(OC)c3)C2=O)cc1`, in the data set filed under Homo sapiens [1], the fold change (FC) is 5.1.

Consider `COc1ccc(C(=O)CN2C(=O)C(c3ccc(OC)c(OC)c3)=C(c3ccc(OC)c(OC)c3)C2=O)cc1`, for which the fold change (FC) in the data set listed under Homo sapiens [1] amounted to 7.6.

Turning to `COc1ccc(C2=C(c3ccc(OC)c(OC)c3)C(=O)N(Cc3ccc(S(C)(=O)=O)cc3)C2=O)cc1OC`, in the data set filed under Homo sapiens [1], the fold change (FC) came to 3.4.

Take `COc1ccc(C2=C(c3ccccc3)C(=O)N(CC(=O)c3ccc(OCc4ccccc4)c(OC)c3)C2=O)cc1OC`: in the data set filed under Homo sapiens [1], the fold change (FC) was 5.9.

Consider `COc1ccc(C(=O)CN2C(=O)C(c3ccccc3)=C(c3ccc(OC)c(OC)c3)C2=O)cc1`, for which the fold change (FC) in the data set listed under Homo sapiens [1] came to 2.6.

On to `COc1ccc(C2=C(c3ccccc3)C(=O)N(Cc3cc(OC)c(OC)c(OC)c3)C2=O)cc1OC`, for which, in the data set listed under Homo sapiens [1], the fold change (FC) worked out at 7.1.

Regarding `COc1ccc(C2=C(c3ccc(OC)c(OCc4ccccc4)c3)C(=O)N(Cc3cc(OC)c(OC)c(OC)c3)C2=O)cc1OC`, the fold change (FC) in the data set filed under Homo sapiens [1] was determined as 11.9.

For `COc1cccc(C2=C(c3ccc(OC)c(OC)c3)C(=O)N(Cc3cc(OC)c(OC)c(OC)c3)C2=O)c1`, in the data set filed under Homo sapiens [1], the fold change (FC) is 11.4.

Take `COc1ccc(C2=C(c3ccc(C)cc3)C(=O)N(CC(=O)c3ccc(S(C)(=O)=O)cc3)C2=O)cc1OC`: in the data set filed under Homo sapiens [1], the fold change (FC) was 2.

In the case of `COc1ccc(C2=C(c3ccc(OC)c(OC)c3)C(=O)N(Cc3ccc(OCc4ccccc4)cc3)C2=O)cc1OC`, in the data set filed under Homo sapiens [1], the fold change (FC) came out at 4.2.

Take `COc1ccc(C2=C(c3ccc(OC)c(OC)c3)C(=O)N(CC(=O)c3ccc(OCc4ccccc4)c(OC)c3)C2=O)cc1`: the fold change (FC) in the data set listed under Homo sapiens [1] amounted to 22.1.

As to `COc1ccc(C(=O)CN2C(=O)C(c3ccc(OC)cc3)=C(c3ccc(OC)c(OC)c3)C2=O)cc1`, the fold change (FC) in the data set listed under Homo sapiens [1] came out at 2.7.

For `COc1ccc(C2=C(c3ccc(OC)c(OC)c3)C(=O)N(CC(=O)c3ccc(S(C)(=O)=O)cc3)C2=O)cc1OC`, the fold change (FC) in the data set listed under Homo sapiens [1] was 1.4.
